In patent US20090202661A1, “BEVERAGE MANUFACTURE, PROCESSING, PACKAGING AND DISPENSING USING ELECTROCHEMICALLY ACTIVATED WATER” (priority 2008, published 2009):

Experiment: Residue neutralization: recovery and breakdown of pesticide and fungicide active ingredients after exposure to anolyte dilutions
Assay type: physicochemical
Details: 5 minutes, ambient temperature
Protocol: The breakdown of pesticide and fungicide residues by an oxidant ECA anolyte solution was evaluated as follows.
The oxidant anolyte solution was diluted using a 10 fold dilution series. As a control for this test, the potential for non-ECA based hydrolysis or chemical breakdown was assessed using two untreated control solutions, one being the tap water used as the diluent in the anolyte dilution series and the other being the non-activated brine solution that was used as the electrolysis feed solution prior to electro-activation.
The experiment was performed to contrast the difference in degree of recovery of a variety of pesticide and fungicide active ingredients (AI's) after the tap water and the various diluted anolyte solutions were ‘spiked’ with the same AI's at fixed inclusion rates. In each case, a one ppm cocktail of the active ingredients was added to a 100 ml aliquot of the test or control solution sample. The test samples were agitated with a mechanical stirrer for 5 minutes at ambient temperature and then extracted with an organic solvent and analyzed by either gas or liquid chromatography.

[1] = 0.25% Brine (nonactivated control)

Row | Compound | ng found [1] | % breakdown (1% Anolyte solution) | ng found (1% Anolyte solution) | % breakdown (10% anolyte solution) | ng found (10% anolyte solution) | % breakdown (100% anolyte solution) | ng found (100% anolyte solution)
1 | CNC(=O)O/N=C/C(C)(C)[S+](C)[O-] (stereo not shown) [Aldicarb sulfoxide] | 0.672 ng | 15.8% | 0.514 ng | 100% | 0.000 ng | 100% | 0.000 ng
2 | Cc1cc(C2CC2)nc(Nc2ccccc2)n1 [Cyprodinil] | 1.297 ng | 0.0% | 1.356 ng | 96.3% | 0.068 ng | 100% | 0.026 ng
3 | CCOP(=S)(OCC)Oc1nc(Cl)c(Cl)cc1Cl [Chlorpyrifos] | 1.014 ng | 0.0% | 1.039 ng | 100% | 0.05 ng | 100% | 0.049 ng
4 | CCOC(=O)CC(SP(=S)(OC)OC)C(=O)OCC (stereo not shown) [Malathion] | 1,327 ng | 0.0% | 1.368 ng | 100% | 0.066 ng | 100% | 0.067 ng
5 | CNC(=O)O/N=C/C(C)(C)SC [Aldicarb] | 0.920 ng | 49.5% | 0.425 ng | 100% | 0.000 ng | 100% | 0.000 ng
6 | CCCCc1c(C)nc(NCC)nc1OS(=O)(=O)N(C)C [Bupirimate] | 1.250 ng | 0.0% | 1.233 ng | 52.0% | 0.730 ng | 100% | 0.074 ng
7 | CCCCNC(=O)n1c(NC(=O)OC)nc2ccccc21 [Benomyl] | 0.970 ng | 8.0% | 0.890 ng | 45% | 0.520 ng | 100% | 0.000 ng
8 | CNC(=O)ON=C(C)SC [Methomyl] | 1.006 ng | 36.6% | 0.634 ng | 100% | 0.000 ng | 100% | 0.000 ng
9 | CO/N=C(/C(=O)OC)c1ccccc1COc1ccccc1C [Kresoxim-methyl] | 1.300 ng | 0.0% | 1.328 ng | 0.0% | 1.344 ng | 100% | 0.035 ng
10 | COP(=S)(OC)SCn1nnc2ccccc2c1=O [Azinphos-methyl] | 2.341 ng | 0.0% | 2.393 ng | 100% | 0.000 ng | 100% | 0.000 ng
